For one test, the target named is human orexin receptor 1 (Homo sapiens (Human), UniProt O43613). Put plainly: Orexin antagonist activity, intracellular calcium FLIPR assay, RBL-2H3 cells expressing human orexin receptor 1. Format: cell-based. The note with it: RBL-2H3 cells stably expressing human orexin receptor 1; orexin-A at approx. 80% maximal response; compound added 15 minutes before; read-out: Human Orexin1R IC50. (In general: Calcium assays in cells follow changes in intracellular calcium, usually with a dye or a luminescent sensor.)
human orexin receptor 1, sequence (O43613 whole entry): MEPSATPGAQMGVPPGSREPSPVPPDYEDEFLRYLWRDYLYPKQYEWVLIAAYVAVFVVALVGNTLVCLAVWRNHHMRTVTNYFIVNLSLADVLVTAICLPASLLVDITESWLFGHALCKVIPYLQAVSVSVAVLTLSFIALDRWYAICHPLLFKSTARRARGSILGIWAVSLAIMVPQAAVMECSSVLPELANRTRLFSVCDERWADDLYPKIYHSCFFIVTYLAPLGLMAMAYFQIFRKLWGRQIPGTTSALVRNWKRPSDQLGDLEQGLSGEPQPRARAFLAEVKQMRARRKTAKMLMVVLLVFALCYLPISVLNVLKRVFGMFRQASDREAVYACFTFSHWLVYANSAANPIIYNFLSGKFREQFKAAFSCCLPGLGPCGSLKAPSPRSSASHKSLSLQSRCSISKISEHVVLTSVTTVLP

For the next test, the target named is human orexin receptor 2 (Homo sapiens (Human), UniProt O43614). Put plainly: Orexin antagonist activity, intracellular calcium FLIPR assay, RBL-2H3 cells expressing human orexin receptor 2. Format: cell-based. The note with it: RBL-2H3 cells stably expressing human orexin receptor 2; orexin-A at approx. 80% maximal response; compound added 15 minutes before; read-out: Human Orexin2R IC50.
human orexin receptor 2, sequence (O43614 whole entry): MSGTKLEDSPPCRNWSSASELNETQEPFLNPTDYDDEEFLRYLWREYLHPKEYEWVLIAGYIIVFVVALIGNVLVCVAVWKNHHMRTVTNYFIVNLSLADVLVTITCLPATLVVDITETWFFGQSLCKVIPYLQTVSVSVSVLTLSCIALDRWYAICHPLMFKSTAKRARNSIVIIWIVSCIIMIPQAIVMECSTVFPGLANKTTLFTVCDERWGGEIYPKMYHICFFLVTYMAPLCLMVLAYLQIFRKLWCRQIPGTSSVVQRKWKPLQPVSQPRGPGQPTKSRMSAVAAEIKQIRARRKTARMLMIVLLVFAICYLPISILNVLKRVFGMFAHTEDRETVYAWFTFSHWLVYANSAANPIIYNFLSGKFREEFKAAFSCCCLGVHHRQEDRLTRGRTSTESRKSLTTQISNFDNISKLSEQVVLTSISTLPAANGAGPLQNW

Each structure is given as a SMILES string.

As a reminder, the IC50 is the concentration at which inhibition is half-maximal.

As to `C[C@]1(Nc2cnc(C(F)(F)F)cn2)CCC[C@@H]1NC(=O)c1ncccc1-n1cccn1` [Example 85, N-[(1S,2S)-2-Methyl-2-{[5-(trifluoromethyl)pyrazin-2-yl]amino}cyclopentyl]-3-(1H-pyrazol-1-yl)pyridine-2-carboxamide], the IC50 on human orexin receptor 1 is 18 nM; on human orexin receptor 2, > 10000 nM.
On the same counts, the results for `CCOc1cccnc1C(=O)N[C@H]1CCC[C@]1(C)Nc1cnc(C(F)(F)F)cn1` [Example 86, 3-Ethoxy-N-[(1S,2S)-2-methyl-2-{[5-(trifluoromethyl)pyrazin-2-yl]amino}cyclopentyl]pyridine-2-carboxamide] are 129 nM and > 10000 nM.
`C[C@]1(Nc2cnc(C(F)(F)F)cn2)CCC[C@@H]1NC(=O)c1c(Cl)cccc1-n1nccn1` [Example 87, 2-Chloro-N-[(1S,2S)-2-methyl-2-{[5-(trifluoromethyl)pyrazin-2-yl]amino}cyclopentyl]-6-(2H-1,2,3-triazol-2-yl)benzamide]: the half-inhibitory concentration (IC50) on human orexin receptor 1 is 8 nM; on human orexin receptor 2 it was > 10000 nM.
Regarding `C[C@]1(Nc2cnc(C(F)(F)F)cn2)CCC[C@@H]1NC(=O)c1c(F)cccc1F` [Example 88, 2,6-Difluoro-N-[(1S,2S)-2-methyl-2-{[5-(trifluoromethyl)pyrazin-2-yl]amino}cyclopentyl]benzamide], the values for the IC50 at human orexin receptor 1 and at human orexin receptor 2 were 166 nM and > 10000 nM, respectively.
Regarding `C[C@]1(Nc2cnc(C(F)(F)F)cn2)CCC[C@@H]1NC(=O)c1ncccc1C1CC1` [Example 89, 3-Cyclopropyl-N-[(1S,2S)-2-methyl-2-{[5-(trifluoromethyl)pyrazin-2-yl]amino}cyclopentyl]pyridine-2-carboxamide], the results for the IC50 at human orexin receptor 1 and on human orexin receptor 2 were 140 nM and > 10000 nM, respectively.
The like results for `C[C@]1(Nc2cnc(C(F)(F)F)cn2)CCC[C@@H]1NC(=O)c1ncccc1OC(F)(F)F` [Example 90, N-[(1S,2S)-2-Methyl-2-{[5-(trifluoromethyl)pyrazin-2-yl]amino}cyclopentyl]-3-(trifluoromethoxy)pyridine-2-carboxamide] were, in that order, 68 nM and > 10000 nM.
Regarding `C[C@]1(Nc2cnc(C(F)(F)F)cn2)CCC[C@@H]1NC(=O)c1ccccc1-c1ncccn1` [Example 91, N-[(1S,2S)-2-Methyl-2-{[5-(trifluoromethyl)pyrazin-2-yl]amino}cyclopentyl]-2-(pyrimidin-2-yl)benzamide], the IC50 on human orexin receptor 1 was 6 nM; on human orexin receptor 2, > 10000 nM.
`C[C@]1(Nc2cnc(C(F)(F)F)cn2)CCC[C@@H]1NC(=O)c1cc(Cl)ccc1-n1nccn1` [Example 92, 5-Chloro-N-[(1S,2S)-2-methyl-2-{[5-(trifluoromethyl)pyrazin-2-yl]amino}cyclopentyl]-2-(2H-1,2,3-triazol-2-yl)benzamide]: the IC50 was 8 nM at human orexin receptor 1 and 5570 nM at human orexin receptor 2.
As for `CC1(Nc2ncc(C(F)(F)F)cn2)CCCC1NC(=O)c1ccccc1-n1nccn1` (centres unmarked) [Example 93, N-(2-Methyl-2-{[5-(trifluoromethyl)pyrimidin-2-yl]amino}cyclopentyl)-2-(2H-1,2,3-triazol-2-yl)benzamide], the IC50 on human orexin receptor 1 was 35 nM; on human orexin receptor 2 it was > 10000 nM.
On the same counts, the results for `CC1(Nc2ccc(C(F)(F)F)cn2)CCCC1NC(=O)c1ccccc1-n1nccn1` (centres unmarked) [Example 95, N-(2-Methyl-2-{[5-(trifluoromethyl)pyridin-2-yl]amino}cyclopentyl)-2-(2H-1,2,3-triazol-2-yl)benzamide] are 19 nM and 1070 nM.
Consider `CC1(Nc2ccc(OC(F)(F)F)cn2)CCCC1NC(=O)c1ccccc1-n1nccn1` (centres unmarked) [Example 96, N-(2-Methyl-2-{[5-(trifluoromethoxy)pyridin-2-yl]amino}cyclopentyl)-2-(2H-1,2,3-triazol-2-yl)benzamide], for which the values for the IC50 on human orexin receptor 1 and at human orexin receptor 2 were 86 nM and 1360 nM, respectively.
`O=C(N[C@H]1CCC[C@@H]1Nc1ccc(C(F)(F)F)cn1)c1cc(Cl)ccc1-n1nccn1` [Example 97, 5-Chloro-2-(2H-1,2,3-triazol-2-yl)-N-[(1S,2S)-2-{[5-(trifluoromethyl)pyridin-2-yl]amino}cyclopentyl]benzamide]: the IC50 is 122 nM at human orexin receptor 1 and > 10000 nM on human orexin receptor 2.
For the compound `O=C(N[C@H]1CCC[C@@H]1Nc1ccc(C(F)(F)F)cn1)c1cccc(F)c1-n1nccn1` [Example 98, 3-Fluoro-2-(2H-1,2,3-triazol-2-yl)-N-[(1S,2S)-2-{[5-(trifluoromethyl)pyridin-2-yl]amino}cyclopentyl]benzamide], the IC50 is 160 nM at human orexin receptor 1 and > 10000 nM on human orexin receptor 2.
In the case of `O=C(N[C@H]1CCC[C@@H]1Nc1ccc(C(F)(F)F)cn1)c1cc(F)cc(F)c1-n1nccn1` [Example 99, 3,5-Difluoro-2-(2H-1,2,3-triazol-2-yl)-N-[(1S,2S)-2-{[5-(trifluoromethyl)pyridin-2-yl]amino}cyclopentyl]benzamide], the values for the IC50 on human orexin receptor 1 and on human orexin receptor 2 were 153 nM and > 10000 nM, respectively.
On to `O=C(N[C@H]1CCC[C@@H]1Nc1ccc(C(F)(F)F)cn1)c1ncccc1-n1nccn1` [Example 100, 3-(2H-1,2,3-Triazol-2-yl)-N-[(1S,2S)-2-{[5-(trifluoromethyl)pyridin-2-yl]amino}cyclopentyl]pyridine-2-carboxamide], for which the IC50 at human orexin receptor 1 is 128 nM; at human orexin receptor 2 it was > 10000 nM.
For the compound `O=C(N[C@H]1CCC[C@@H]1Nc1ccc(C(F)(F)F)cn1)c1ncccc1-n1cccn1` [Example 101, 3-(1H-Pyrazol-1-yl)-N-[(1S,2S)-2-{[5-(trifluoromethyl)pyridin-2-yl]amino}cyclopentyl]pyridine-2-carboxamide], the IC50 was 310 nM at human orexin receptor 1 and > 10000 nM on human orexin receptor 2.
As to `O=C(N[C@H]1CCC[C@@H]1Nc1ccc(C(F)(F)F)cn1)c1c(F)cccc1-n1nccn1` [Example 102, 2-Fluoro-6-(2H-1,2,3-triazol-2-yl)-N-[(1S,2S)-2-{[5-(trifluoromethyl)pyridin-2-yl]amino}cyclopentyl]benzamide], the figures for the IC50 on human orexin receptor 1 and on human orexin receptor 2 were 46 nM and > 10000 nM, respectively.
In the case of `CC1(Nc2ncc(C(F)(F)F)cc2F)CCCC1NC(=O)c1ncccc1-n1nccn1` (centres unmarked) [Example 103, N-(2-{[3-Fluoro-5-(trifluoromethyl)pyridin-2-yl]amino}-2-methylcyclopentyl)-3-(2H-1,2,3-triazol-2-yl)pyridine-2-carboxamide], the IC50 on human orexin receptor 1 stood at 8 nM; on human orexin receptor 2 it was 7900 nM.
Consider `O=C(N[C@H]1CCC[C@@H]1Nc1ncc(C(F)(F)F)cc1F)c1ccccc1-n1nccn1` [Example 105, N-[(1S,2S)-2-{[3-Fluoro-5-(trifluoromethyl)pyridin-2-yl]amino}cyclopentyl]-2-(2H-1,2,3-triazol-2-yl)benzamide], for which the figures for the IC50 on human orexin receptor 1 and at human orexin receptor 2 were 39 nM and > 10000 nM, respectively.
For `O=C(N[C@H]1CCC[C@@H]1Nc1ncc(C(F)(F)F)cc1Cl)c1ccccc1-n1nccn1` [Example 106, N-[(1S,2S)-2-{[3-Chloro-5-(trifluoromethyl)pyridin-2-yl]amino}cyclopentyl]-2-(2H-1,2,3-triazol-2-yl)benzamide], the IC50 was 29 nM at human orexin receptor 1 and > 10000 nM on human orexin receptor 2.
As to `O=C(N[C@H]1CCC[C@@H]1Nc1ncc(C(F)(F)F)cc1Br)c1ccccc1-n1nccn1` [Example 107, N-[(1S,2S)-2-{[3-Bromo-5-(trifluoromethyl)pyridin-2-yl]amino}cyclopentyl]-2-(2H-1,2,3-triazol-2-yl)benzamide], the IC50 on human orexin receptor 1 was 27 nM; at human orexin receptor 2, > 10000 nM.
For `Cc1cc(C(F)(F)F)cnc1N[C@H]1CCC[C@@H]1NC(=O)c1ccccc1-n1nccn1` [Example 108, N-[(1S,2S)-2-{[3-Methyl-5-(trifluoromethyl)pyridin-2-yl]amino}cyclopentyl]-2-(2H-1,2,3-triazol-2-yl)benzamide], the IC50 is 24 nM at human orexin receptor 1 and > 10000 nM on human orexin receptor 2.
Take `O=C(N[C@H]1CCC[C@@H]1Nc1ncc(C(F)(F)F)nc1C1CC1)c1ccccc1-n1nccn1` [Example 109, N-[(1S,2S)-2-{[3-Cyclopropyl-5-(trifluoromethyl)pyrazin-2-yl]amino}cyclopentyl]-2-(2H-1,2,3-triazol-2-yl)benzamide]: the IC50 on human orexin receptor 1 is 21 nM; at human orexin receptor 2, > 10000 nM.
Consider `CC(C)c1nc(C(F)(F)F)cnc1N[C@H]1CCC[C@@H]1NC(=O)c1ccccc1-n1nccn1` [Example 110, N-[(1S,2S)-2-{[3-(Propan-2-yl)-5-(trifluoromethyl)pyrazin-2-yl]amino}cyclopentyl]-2-(2H-1,2,3-triazol-2-yl)benzamide], for which the IC50 at human orexin receptor 1 amounted to 43 nM; at human orexin receptor 2, 3550 nM.
For the compound `CCc1nc(C(F)(F)F)cnc1N[C@H]1CCC[C@@H]1NC(=O)c1ccccc1-n1nccn1` [Example 111, N-[(1S,2S)-2-{[3-Ethyl-5-(trifluoromethyl)pyrazin-2-yl]amino}cyclopentyl]-2-(2H-1,2,3-triazol-2-yl)benzamide], the IC50 is 34 nM at human orexin receptor 1 and > 10000 nM at human orexin receptor 2.
Consider `O=C(N[C@H]1CCC[C@@H]1Nc1cnc(C2CC2)cn1)c1ccccc1-n1nccn1` [Example 112, N-[(1S,2S)-2-[(5-Cyclopropylpyrazin-2-yl)amino]cyclopentyl]-2-(2H-1,2,3-triazol-2-yl)benzamide], for which the IC50 at human orexin receptor 1 is 476 nM; at human orexin receptor 2, > 10000 nM.
On the same counts, the results for `CC(C)c1cnc(N[C@H]2CCC[C@@H]2NC(=O)c2ccccc2-n2nccn2)cn1` [Example 113, N-[(1S,2S)-2-{[5-(Propan-2-yl)pyrazin-2-yl]amino}cyclopentyl]-2-(2H-1,2,3-triazol-2-yl)benzamide] are 67 nM and > 10000 nM.
In the case of `CCc1cnc(N[C@H]2CCC[C@@H]2NC(=O)c2ccccc2-n2nccn2)cn1` [Example 114, N-[(1S,2S)-2-[(5-Ethylpyrazin-2-yl)amino]cyclopentyl]-2-(2H-1,2,3-triazol-2-yl)benzamide], the IC50 was 997 nM on human orexin receptor 1 and > 10000 nM at human orexin receptor 2.

Values taken from US9156829B2, “Cycloalkyl and heterocycloalkyl compounds as orexin receptor antagonists” (Takeda Pharmaceutical Company Limited, priority 2014, dated 2015).
